The nature of data set [1]: Solvency of the active substance in monomers (visual inspection). The data set is classed as physicochemical. On the set-up: key: Excellent: The active substance was not found to have been precipitated in the solution of active substance both immediately after the preparation and after the preservation for 7 days.; Good: The active substance was found to have been precipitated in the solution of active substance immediately after the preparation, but the active substance was not found to have been precipitated in the solution of active substance after the preservation for 7 days.; Poor: The active substance was found to have been precipitated in the solution of active substance both immediately after the preparation and after the preservation for 7 days. The note with it: 25° C., 7 days.

A short description of data set [2]: Residual rate of the active substance in monomer solution (HPLC). In kind it is physicochemical. The note with it: for Residual Rate (% by weight) after 7 Days: 25° C.
[3] abbreviates: 3 parts active substance in 100 parts 1-Vinyl-2-Pyrrolidone.
Setting [4] is: 3 parts active substance in 100 parts 2-Ethylhexyl Acrylate.
Where [5] appears, read: 3 parts active substance in 100 parts 2-Ethylhexyl Methacrylate.
The mark [6] stands for this setting: 3 parts active substance in 100 parts Acrylic Acid.
The mark [7] stands for this setting: 3 parts active substance in 100 parts Butyl Acrylate.
Setting [8] is: 3 parts active substance in 100 parts Butyl Methacrylate.
Setting [9] is: 3 parts active substance in 100 parts Dodecyl Methacrylate.
The mark [10] stands for this setting: 3 parts active substance in 100 parts Ethyl Acrylate.
Where [11] appears, read: in Butyl Acrylate, N.D. = equal to or less than the HPLC detection limit.
Where [12] appears, read: in Ethyl Acrylate, N.D. = equal to or less than the HPLC detection limit.

Each structure is given as a SMILES string.

Regarding `COc1ccc2c(c1)c(CC(=O)O)c(C)n2C(=O)c1ccc(Cl)cc1` [IMT, indomethacin], the “Solvency of the active substance” value in data set [1] (setting [3]) was “Excellent”; in data set [1] (setting [4]), “Poor”; in data set [1] (setting [5]), “Poor”; in data set [1] (setting [6]), “Excellent”; in data set [1] (setting [7]), “Poor”; in data set [1] (setting [8]), “Poor”. In addition, the “Solvency of the active substance” value in data set [1] (setting [9]) and in data set [1] (setting [10]) was “Poor” in each case. Also, the “Residual Rate (% by weight) Immediately after Preparation” value (“Residual Rate (% by weight) Immediately” below) in data set [2] (in 1-Vinyl-2-Pyrrolidone), in data set [2] (in 2-Ethylhexyl Acrylate), in data set [2] (in 2-Ethylhexyl Methacrylate), in data set [2] (in Acrylic Acid), in data set [2] (in Butyl Acrylate) and in data set [2] (in Butyl Methacrylate) was 100 % by weight throughout. The “Residual Rate (% by weight) Immediately” value in data set [2] (in Dodecyl Methacrylate) and in data set [2] (setting [12]) was 100 % by weight throughout. The “Residual Rate (% by weight) after 7 Days” value in data set [2] (in 1-Vinyl-2-Pyrrolidone) came to 100 % by weight; in data set [2] (in 2-Ethylhexyl Acrylate) it was 100 % by weight; in data set [2] (in 2-Ethylhexyl Methacrylate), 100 % by weight; in data set [2] (in Acrylic Acid), 100 % by weight; in data set [2] (setting [11]) it was 100 % by weight; in data set [2] (in Butyl Methacrylate), 99 % by weight. Also, the “Residual Rate (% by weight) after 7 Days” value in data set [2] (in Dodecyl Methacrylate) was determined as 100 % by weight; in data set [2] (in Ethyl Acrylate) it was 99 % by weight.
For `O=[N+]([O-])O[C@H]1CO[C@H]2[C@@H]1OC[C@H]2O[N+](=O)[O-]` [ISDN, isosorbide dinitrate], the “Solvency of the active substance” value in data set [1] (setting [3]), in data set [1] (setting [4]), in data set [1] (setting [5]), in data set [1] (setting [6]), in data set [1] (setting [7]) and in data set [1] (setting [8]) was “Excellent” throughout. The “Solvency of the active substance” value in data set [1] (setting [9]) and in data set [1] (setting [10]) was “Excellent” in each case. Besides, the “Residual Rate (% by weight) Immediately” value in data set [2] (in 1-Vinyl-2-Pyrrolidone), in data set [2] (in 2-Ethylhexyl Acrylate), in data set [2] (in 2-Ethylhexyl Methacrylate), in data set [2] (in Acrylic Acid), in data set [2] (in Butyl Acrylate) and in data set [2] (in Butyl Methacrylate) was 100 % by weight throughout. Moreover, the “Residual Rate (% by weight) Immediately” value in data set [2] (in Dodecyl Methacrylate) and in data set [2] (setting [12]) was 100 % by weight each time. Further, the “Residual Rate (% by weight) after 7 Days” value is given as 100 % by weight in data set [2] (in 1-Vinyl-2-Pyrrolidone); 100 % by weight in data set [2] (in 2-Ethylhexyl Acrylate); 99 % by weight in data set [2] (in 2-Ethylhexyl Methacrylate); 100 % by weight in data set [2] (in Acrylic Acid); 100 % by weight in data set [2] (setting [11]); 100 % by weight in data set [2] (in Butyl Methacrylate). The “Residual Rate (% by weight) after 7 Days” value in data set [2] (in Dodecyl Methacrylate) and in data set [2] (in Ethyl Acrylate) was 100 % by weight in each case.
Regarding `CC(C)(C)NCC(O)c1ccccc1Cl` (stereo not drawn) [TB, tulobuterol], the “Solvency of the active substance” value in data set [1] (setting [3]), in data set [1] (setting [4]), in data set [1] (setting [5]), in data set [1] (setting [6]), in data set [1] (setting [7]) and in data set [1] (setting [8]) was “Excellent” in each case. For the same compound, the “Solvency of the active substance” value in data set [1] (setting [9]) is “Good”; in data set [1] (setting [10]) it was “Excellent”. The “Residual Rate (% by weight) Immediately” value in data set [2] (in 1-Vinyl-2-Pyrrolidone), in data set [2] (in 2-Ethylhexyl Acrylate), in data set [2] (in 2-Ethylhexyl Methacrylate), in data set [2] (in Acrylic Acid), in data set [2] (in Butyl Acrylate) and in data set [2] (in Butyl Methacrylate) was 100 % by weight throughout. Also, the “Residual Rate (% by weight) Immediately” value in data set [2] (in Dodecyl Methacrylate) and in data set [2] (setting [12]) was 100 % by weight in each case. The “Residual Rate (% by weight) after 7 Days” value in data set [2] (in 1-Vinyl-2-Pyrrolidone) was 100 % by weight; in data set [2] (in 2-Ethylhexyl Acrylate) it was 88 % by weight; in data set [2] (in 2-Ethylhexyl Methacrylate) it was 100 % by weight; in data set [2] (in Acrylic Acid), 96 % by weight; in data set [2] (setting [11]), 81 % by weight; in data set [2] (in Butyl Methacrylate), 100 % by weight. Also, the entries for the “Residual Rate (% by weight) after 7 Days” value in data set [2] (in Dodecyl Methacrylate) and in data set [2] (in Ethyl Acrylate) were 100 % by weight and 70 % by weight, respectively.

The values above are taken from US20090317452A1, “Transdermal patch” (Sekisui Chemical Co. td., priority 2006, published 2009).
